Among the data in patent US10774092B2 (SALK INSTITUTE FOR BIOLOGICAL STUDIES, priority 2014, dated 2020) are IC50 values, retold here.

Some results are limits rather than exact numbers.

For this assay, the target named is ULK1. Description: ULK1 inhibition assay (Table 1). It is filed as biochemical. Particulars: * = tested as a mixture of regioisomers.
The term IC50 denotes the concentration that inhibits the measured activity by half. Regarding `CC(Cl)CNc1nc(Nc2ccc3c(c2)CCC(=O)N3)ncc1C(F)(F)F` (stereo not drawn) [Example 183b, 6-((4-((2-chloropropyl)amino)-5-(trifluoromethyl)pyrimidin-2-yl)amino)-3,4-dihydroquinolin-2(1H)-one], the IC50 was below 0.2 µM.
For the molecule `CC(CCl)Nc1nc(Nc2ccc3c(c2)CCC(=O)N3)ncc1C(F)(F)F` (stereo not drawn) [Example 183c, 6-((4-((1-chloropropan-2-yl)amino)-5-(trifluoromethyl)pyrimidin-2-yl)amino)-3,4-dihydroquinolin-2(1H)-one], the IC50 was above 2 µM.
Turning to `CN(c1ccccc1)c1nc(Nc2ccc3c(c2)CCC(=O)N3)ncc1C(F)(F)F` [Example 184a, 6-((4-(methyl(phenyl)amino)-5-(trifluoromethyl)pyrimidin-2-yl)amino)-3,4-dihydroquinolin-2(1H)-one], the IC50 was in the range of 0.2 to 2 µM.
On to `CN(c1ccccc1)c1ncc(C(F)(F)F)c(Nc2ccc3c(c2)CCC(=O)N3)n1` [Example 184b, 6-((2-(methyl(phenyl)amino)-5-(trifluoromethyl)pyrimidin-4-yl)amino)-3,4-dihydroquinolin-2(1H)-one], for which the concentration for half-maximal inhibition (IC50) was below 0.2 µM.
The same measure for `Oc1ncc(C(F)(F)F)c(NC2CC2)n1` [Example 189, 4-(cyclopropylamino)-5-(trifluoromethyl)pyrimidin-2-ol]: above 2 µM; for `FC(F)(F)c1cnc(Nc2cccnc2)nc1NC1CC1` [Example 196, N4-cyclopropyl-N2-(pyridin-3-yl)-5-(trifluoromethyl) pyrimidine-2,4-diamine]: above 2 µM.
As to `O=C1CCc2cc(Nc3ncc(C(F)(F)F)c(NC4CNC4)n3)ccc2N1` [Example 198a, 6-((4-(azetidin-3-ylamino)-5-(trifluoromethyl)pyrimidin-2-yl)amino)-3,4-dihydroquinolin-2(1H)-one], the IC50 was in the range of 0.2 to 2 µM.
As for `O=C1CCc2cc(Nc3ncc(C(F)(F)F)c(NC4CN(c5nc(Nc6ccc7c(c6)CCC(=O)N7)ncc5C(F)(F)F)C4)n3)ccc2N1` [Example 198b, 6-((4-(3-((2-((2-oxo-1,2,3,4-tetrahydroquinolin-6-yl)amino)-5-(trifluoromethyl)pyrimidin-4-yl)amino)azetidin-1-yl)-5-(trifluoromethyl)pyrimidin-2-yl)amino)-3,4-dihydroquinolin-2(1H)-one], the IC50 was above 2 µM.
In the case of `FC(F)(F)c1cnc(Nc2cncnc2)nc1NC1CC1` [Example 203, N4-cyclopropyl-N2-(pyrimidin-5-yl)-5-(trifluoromethyl) pyrimidine-2,4-diamine], the IC50 was below 0.2 µM.
For `c1cc(NC2CC2)nc(Nc2cnc3[nH]ccc3c2)n1` [Example 204, N4-cyclopropyl-N2-(1H-pyrrolo[2,3-b]pyridin-5-yl)pyrimidine-2,4-diamine], the concentration for half-maximal inhibition (IC50) is above 2 µM.
To `OC1Nc2ccc(Nc3ncc(C(F)(F)F)c(NC4CC4)n3)cc2O1` (stereo not drawn) [Example 208b, 6-((4-(cyclopropylamino)-5-(trifluoromethyl)pyrimidin-2-yl)amino)-2,3-dihydrobenzo[d]oxazol-2-ol] belongs below 0.2 µM; to `O=C1CCc2cc(Nc3ncc(C(F)(F)F)c(OCCNCCO)n3)ccc2N1` [Example 212b, 6-((4-(2-((2-hydroxyethyl)amino)ethoxy)-5-(trifluoromethyl)pyrimidin-2-yl)amino)-3,4-dihydroquinolin-2(1H)-one], 0.2 to 2 µM; to `FC(F)(F)c1cnc(Nc2ccon2)nc1NC1CC1` [Example 214a, N4-cyclopropyl-N2-(isoxazol-3-yl)-5-(trifluoromethyl)pyrimidine-2,4-diamine], 0.2 to 2 µM.
`N=c1ccon1-c1ncc(C(F)(F)F)c(NC2CC2)n1` [Example 214b, N-cyclopropyl-2-(3-iminoisoxazol-2(3H)-yl)-5-(trifluoromethyl)pyrimidin-4-amine]: the IC50 is above 2 µM.
As for `CN(C)c1nc(Nc2ccc3c(c2)CCC(=O)N3)ncc1C(F)(F)F` [Example 220b, 6-((4-(dimethylamino)-5-(trifluoromethyl)pyrimidin-2-yl)amino)-3,4-dihydroquinolin-2(1H)-one], the IC50 is below 0.2 µM.
`c1cc(NC2CC2)nc(Nc2ccc3c(c2)OCCO3)n1` [Example 224, N4-cyclopropyl-N2-(2,3-dihydrobenzo[b][1,4]dioxin-6-yl)pyrimidine-2,4-diamine]: the IC50 is above 2 µM.
The same measure for `O=C1CCc2cc(Nc3ncc(C(F)(F)F)c(OC4COC4)n3)ccc2N1` [Example 231a, 6-((4-(oxetan-3-yloxy)-5-(trifluoromethyl)pyrimidin-2-yl)amino)-3,4-dihydroquinolin-2(1H)-one]: below 0.2 µM.
Turning to `O=C1CCc2cc(Nc3ncc(C(F)(F)F)c(O)n3)ccc2N1` [Example 231b, 6-((4-hydroxy-5-(trifluoromethyl)pyrimidin-2-yl)amino)-3,4-dihydroquinolin-2(1H)-one], the IC50 is above 2 µM.
With `O=c1[nH]c2ccc(Nc3nccc(NC4CC4)n3)cc2[nH]1` [Example 232, 5-((4-(cyclopropylamino)pyrimidin-2-yl)amino)-1,3-dihydro-2H-benzo[d]imidazol-2-one], the IC50 was above 2 µM.
As for `O=c1[nH]c2ccc(Nc3ncc(Br)c(Nc4ccc5[nH]c(=O)[nH]c5c4)n3)cc2[nH]1` [Example 233, 5,5′-((5-bromopyrimidine-2,4-diyl)bis(azanediyl))bis(1,3-dihydro-2H-benzoimidazol-2-one)], the IC50 was below 0.2 µM.
As to `COc1cc(Nc2ncc(Cl)c(N(C)C(=O)c3ccccc3O)n2)cc(OC)c1OC` [Example 234b, N-(5-chloro-2-((3,4,5-trimethoxyphenyl)amino)pyrimidin-4-yl)-2-hydroxy-N-methylbenzamide], the half-inhibitory concentration (IC50) lay in the range of 0.2 to 2 µM.
For the molecule `O=C1Cc2cc(Nc3ncc(C(F)(F)F)c(NC4CC4)n3)ccc2N1` [Example 240, 5-((4-(cyclopropylamino)-5-(trifluoromethyl)pyrimidin-2-yl)amino)indolin-2-one], the IC50 is below 0.2 µM.
For the molecule `CNC(=O)c1cccc(Oc2nc(Nc3cc(OC)c(OC)c(OC)c3)ncc2Br)c1` [Example 242, 3-((5-bromo-2-((3,4,5-trimethoxyphenyl)amino)pyrimidin-4-yl)oxy)-N-methylbenzamide], the IC50 was 0.2 to 2 µM.
In the case of `COc1cc(Nc2ncc(Br)c(Oc3ccccc3C(=O)N(C)C)n2)cc(OC)c1OC` [Example 245, 2-((5-bromo-2-((3,4,5-trimethoxyphenyl)amino)pyrimidin-4-yl)oxy)-N,N-dimethylbenzamide], the IC50 was below 0.2 µM.
With `COc1cc(Nc2ncc(Br)c(Oc3ccccc3C(N)=O)n2)cc(OC)c1OC` [Example 249, 2-((5-bromo-2-((3,4,5-trimethoxyphenyl)amino)pyrimidin-4-yl)oxy)benzamide], the IC50 was below 0.2 µM.
Consider `CNC(=O)c1cccc(OC)c1Oc1nc(Nc2cc(OC)c(OC)c(OC)c2)ncc1Br` [Example 252, 2-((5-bromo-2-((3,4,5-trimethoxyphenyl)amino)pyrimidin-4-yl)oxy)-3-methoxy-N-methylbenzamide], for which the half-maximal inhibitory concentration (IC50) was below 0.2 µM.
As to `COc1cc(Nc2ncc(Br)c(Oc3ccccc3NC(C)=O)n2)cc(OC)c1OC` [Example 254a, N-(2-((5-bromo-2-((3,4,5-trimethoxyphenyl)amino)pyrimidin-4-yl)oxy)phenyl)acetamide], the IC50 is below 0.2 µM.
With `COc1cc(Nc2ncc(Br)c(Oc3ccccc3N)n2)cc(OC)c1OC` [Example 254b, 4-(2-aminophenoxy)-5-bromo-N-(3,4,5-trimethoxyphenyl)pyrimidin-2-amine], the IC50 is below 0.2 µM.
On to `CNC(=O)c1c(O)cccc1Oc1nc(Nc2cc(OC)c(OC)c(OC)c2)ncc1Br` [Example 257, 2-((5-bromo-2-((3,4,5-trimethoxyphenyl)amino)pyrimidin-4-yl)oxy)-6-hydroxy-N-methylbenzamide], for which the IC50 is below 0.2 µM.
Take `O=C1CCc2cc(Nc3ncc(C(F)(F)F)c(OCCNC(=O)OCc4ccccc4)n3)ccc2N1` [Example 261, Benzyl (2-((2-((2-oxo-1,2,3,4-tetrahydroquinolin-6-yl)amino)-5-(trifluoromethyl)pyrimidin-4-yl)oxy)ethyl)carbamate]: the IC50 is above 2 µM.
In the case of `O=C1CCc2cc(Nc3nc(NC4CC4)c4ccccc4n3)ccc2N1` [Example 263, 6-((4-(cyclopropylamino)quinazolin-2-yl)amino)-3,4-dihydroquinolin-2(1H)-one], the IC50 was above 2 µM.
For `COc1cc(Nc2ncc(Br)c(Oc3ccccc3)n2)cc(OC)c1OC` [Example 266, 5-bromo-4-phenoxy-N-(3,4,5-trimethoxyphenyl)pyrimidin-2-amine], the IC50 was below 0.2 µM.
For the molecule `CNC(=O)c1cccc(Oc2nc(Nc3ccc4c(c3)CCC(=O)N4)ncc2Br)c1` [Example 268, 3-((5-bromo-2-((2-oxo-1,2,3,4-tetrahydroquinolin-6-yl)amino)pyrimidin-4-yl)oxy)-N-methylbenzamide], the IC50 was in the range of 0.2 to 2 µM.
On to `COc1cc(Nc2ncc(Br)c(Oc3ccccc3C(=O)NC3CC3)n2)cc(OC)c1OC` [Example 270, 2-((5-bromo-2-((3,4,5-trimethoxyphenyl)amino)pyrimidin-4-yl)oxy)-N-cyclopropylbenzamide], for which the IC50 lay in the range of 0.2 to 2 µM.
Turning to `COCc1ccccc1Oc1nc(Nc2cc(OC)c(OC)c(OC)c2)ncc1Br` [Example 274, 5-bromo-4-(2-(methoxymethyl)phenoxy)-N-(3,4,5-trimethoxyphenyl)pyrimidin-2-amine], the IC50 was below 0.2 µM.
`COc1cc(Nc2ncc(Br)c(Oc3ccccc3C(=O)N3CCCC3)n2)cc(OC)c1OC` [Example 277, (2-((5-bromo-2-((3,4,5-trimethoxyphenyl)amino)pyrimidin-4-yl)oxy)phenyl)(pyrrolidin-1-yl)methanone]: the IC50 is below 0.2 µM.
As to `FC(F)(F)c1cnc(Nc2cccc3ncccc23)nc1NC1CC1` [Example 278, N4-cyclopropyl-N2-(quinolin-5-yl)-5-(trifluoromethyl) pyrimidine-2,4-diamine], the IC50 is above 2 µM.
Consider `COc1cc(Nc2ncc(Br)c(Oc3ccccc3NC(=O)C3CC3)n2)cc(OC)c1OC` [Example 281, N-(2-((5-bromo-2-((3,4,5-trimethoxyphenyl)amino)pyrimidin-4-yl)oxy)phenyl)cyclopropanecarboxamide], for which the IC50 is below 0.2 µM.
For `N#Cc1cnc(NC2CC2)nc1Nc1ccc2c(c1)CCC(=O)N2` [Example 287], the IC50 is above 2 µM.
